Key:
OVCAR3-CP cells = assay: 10-day colony formation assay, OVCAR3-CP (cisplatin resistant); type: cell-based, human; conditions: for fold change: cisplatin-resistant OVCAR3 relative to OVCAR3 cisplatin-naïve, colony formation
Procedure: Cells were seeded at predetermined densities, 24 hours later treated with drug, which was replenished every 3-4 days. After 10 days, cells were washed with PBS, fixed in methanol, stained with crystal violet and colonies counted. The surviving fraction (SF) for a given dose was calculated and dose-response curves plotted and IC50 generated using Graph Pad Prism™ 5. Receiver operator curves (ROC) were plotted by dicotomising the IC50 values based on the median of the IC50 and defining the higher IC50 values as resistant and the lower IC50 values as sensitive. The gene signatures associated with the cell lines were plotted based on sensitive and resistant cells. Additionally ROCs were plotted by dicotomising the signature scores based on the median of the scores and defining the higher signature score as signature positive and the lower signature scores as signature negative. The IC50s associated with the cell lines were plotted based on signature positive and signature negative cells. OVCAR3 and OVCAR4 cells were trypsinised and relevant cell numbers were seeded into P90 plates. Cells were allowed to adhere overnight. The following day media was removed and replaced with media containing 25 nM cisplatin. The concentration of cisplatin was increased every 2 weeks, doubling the concentration at every increment. Batches of cells were frozen every two weeks upon increasing the concentration of cisplatin. Once cells were stably growing at 200 nM cisplatin, sensitivity to cisplatin was tested by clonogenic assay. Cells were continuously grown in 200 nM cisplatin.

OVCAR3-WT cells = assay: 10-day colony formation assay, OVCAR3-WT (cisplatin sensitive/naive); type: cell-based, human
Procedure: (§1) Cells were seeded at predetermined densities, 24 hours later treated with drug, which was replenished every 3-4 days. After 10 days, cells were washed with PBS, fixed in methanol, stained with crystal violet and colonies counted. The surviving fraction (SF) for a given dose was calculated and dose-response curves plotted and IC50 generated using Graph Pad Prism™ 5. Receiver operator curves (ROC) were plotted by dicotomising the IC50 values based on the median of the IC50 and defining the higher IC50 values as resistant and the lower IC50 values as sensitive. The gene signatures associated with the cell lines were plotted based on sensitive and resistant cells. Additionally ROCs were plotted by dicotomising the signature scores based on the median of the scores and defining the higher signature score as signature positive and the lower signature scores as signature negative. The IC50s associated with the cell lines were plotted based on signature positive and signature negative cells.

[1] = system: OVCAR3 and OVCAR4 cisplatin-resistant cells; assay: CellTiter Glo cell viability assay; type: cell-based; conditions: Homo sapiens; 48 hour time point; cell line not stated in legend (FIG. 43A)
Procedure: Cells were trysanised and counted using the Countess™ Automated Cell Counter. 5,000 cells were seeded into each well of a 96 well plate. Cells were allowed to adhere overnight and were then treated with titrated concentrations of cisplatin, cedirianib and nintedanib (10 μM to 0.005 μM concentration). […] The 96 well plate was allowed to stand at room temperature for 20-30 mins. In the meantime the CellTiter-Glo Luminescent was allowed to thaw from the −20 freezer. Following the 20-30 minute incubation, 75 μl of the CellTiter-Glo Luminescent was added per well, this was then shaken for 2 minutes and then allowed to stand for 10 minutes. The analysis was performed using the Bioscience BioTek plate reader.

[2] = system: OVCAR3 and OVCAR4 cisplatin-resistant cells; assay: Western blot of VEGFa protein expression; type: cell-based, human; conditions: IC50 concentration; western blot (FIG. 43B)
[3] = system: relapsed platinum sensitive epithelial ovarian cancer; conditions: cited from earlier work
[4] = system: OVCAR3-WT, OVCAR3-CP, OVCAR4-WT and OVCAR4-CP cells; assay: 10-day colony formation assay with ALM201 (FIG. 30c); type: cell-based, human; conditions: OVCAR3 and OVCAR4 cells (FIG. 30c)
Procedure: as §1
OVCAR3 and OVCAR4 cells were trypsinised and relevant cell numbers were seeded into P90 plates. Cells were allowed to adhere overnight. The following day media was removed and replaced with media containing 25 nM cisplatin. The concentration of cisplatin was increased every 2 weeks, doubling the concentration at every increment. […]

[5] = system: OVCAR3 cisplatin resistant cell line; assay: Western blot of EMT and MAPK pathway markers, OVCAR3 cisplatin resistant cells; type: cell-based, human; conditions: 1 nM and 10 nM, 24 hour treatment; western blot (FIG. 30b)
[6] = system: OVCAR3 platinum resistant cell line; assay: xCELLigence invasion assay; type: cell-based, human; conditions: 0.1 nM, 1 nM and 10 nM (p=0.0211, p=0.0026, p=0.3373) (FIG. 30d)
Procedure: The invasion assay was performed using the xCELLigence RTCA DP system and carried out with CIM-plate 16 (ACEA bioscience).
Normal cell media growth conditions (RPMI 1640, 1% L-Glut and 20% FCS) was the chemoattractant condition used in the bottom chamber. 160 μl of the chemoattractant was added to each bottom chamber of a CIM-plate 16. The CIM-Plate 16 is assembled by placing the top chamber onto the bottom chamber and snapping the two together. 20 μl Matrigel growth factor reduced (GFR) (phenol-red free) basement membrane matrix (Cornig, ref: 356231) was diluted in 400 μl optimem (serum free) giving a final working concentration of GFR Matrigel of 5%. […]
The protocol is optimized for the two paired cancer cell lines: OVCAR3, OVCAR4 parental and OVCAR3, OVCAR4 platinum resistant cell lines. […] Once the CIM-Plate 16 has been equilibrated, it is placed in the RTCA DP station and the background cell-index values are measured. […] The CIM-Plate 16 is placed in the RTCA DP station and migration is monitored every 5 minutes for several hours.
Each experimental condition was performed in triplicate. For quantification of the migration rate, the slope of the curve was used to determine the rate if change in cell index. The average and standard deviation slope values were then quantified relative to that at the control condition.

[7] = system: OVCAR3 platinum resistant cell line; assay: xCELLigence migration assay; type: cell-based, human; conditions: 0.1 nM, 1 nM and 10 nM (p=0.08544, p=0.015522, p=0.036739) (FIG. 30d)
Procedure: The migration assay was performed using the xCELLigence RTCA DP system and carried out with CIM-plate 16 (ACEA Bioscience). Endothelial progenitor cell conditioned media, fresh endothelial media with growth factors (VEGF, IGF-1, bFGF, EGF) with 10% foetal bovine serum (FBS) and endothelial media with 10% foetal bovine serum (FBS) only, were the three chemo-attractant conditions used in the bottom chamber. 160 μl of the chemo-attractant was added to each bottom chamber of a CIM-plate 16. The CIM-Plate 16 is assembled by placing the top chamber onto the bottom chamber and snapping the two together. 30 μl pf serum-free medium is placed in the top chamber to hydrate and pre-incubate the membrane for 2 hours in the CO2 incubator at 37° C. before obtaining a background measurement. The protocol is optimised for the two paired cancer cell lines: OVCAR3, OVCAR4 parental and OVCAR3, OVCAR4 platinum resistant cell lines. […] Once the CIM-Plate 16 has been equilibrated, it is placed in the RTCA DP station and the background cell-index values are measured. […] The CIM-Plate 16 is placed in the RTCA DP station and migration is monitored every 5 minutes for several hours. […] For quantification of the migration rate, the slope of the curve was used to determine the rate if change in cell index. The average and standard deviation slope values were then quantified relative to the controls.

Kuramochi cells = assay: Western blot of EMT and MAPK pathway markers, Kuramochi cells; type: cell-based; conditions: western blot (FIG. 30a)
[8] = Homo sapiens, OVCAR-3, 240 h, OVCAR3 cisplatin-resistant, 10-day colony formation (FIG. 42)
[9] = Homo sapiens, OVCAR-3, 240 h, OVCAR3 cisplatin-naïve, 10-day colony formation (FIG. 42)

Compound: COc1cc2c(Oc3ccc4[nH]c(C)cc4c3F)ncnc2cc1OCCCN1CCCC1 [Cediranib]
- IC50 (OVCAR3-CP cells; [8]): 1190 nM
- fold change (OVCAR3-CP cells): 0.2391
- IC50 (OVCAR3-WT cells; [9]): 4990 nM
- IC50 [1]: 5570 nM
- expression of the VEGFR ligand, VEGFa [2]: downregulated
- PFS ([3]; cediranib with platinum chemotherapy and maintenance (reference 9.4 months)): 11.4 months
- overall survival ([3]; cediranib with platinum chemotherapy and maintenance (reference 17.6 months)): 20.3 months
- HR for PFS ([3]; p-value=0.0022): 0.68
- HR for overall survival ([3]; p-value=0.0419): 0.70

Compound: COC(=O)c1ccc2c(c1)NC(=O)/C2=C(\Nc1ccc(N(C)C(=O)CN2CCN(C)CC2)cc1)c1ccccc1 [Nintedanib]
- IC50 (OVCAR3-CP cells; [8]): 3780 nM
- fold change (OVCAR3-CP cells): 0.377
- IC50 (OVCAR3-WT cells; [9]): > 10000 nM
- IC50 [1]: 9100 nM
- expression of the VEGFR ligand, VEGFa [2]: downregulated

Compound: N.N.[Cl][Pt][Cl] [cisplatin]
- IC50 (OVCAR3-CP cells; OVCAR3-CP, cisplatin with addition of Trametinib): 60 nM
- fold decrease in the IC50 (OVCAR3-CP cells; OVCAR3-CP, following addition of Trametinib to cisplatin): 4.8 fold
- IC50 (OVCAR3-CP cells; cisplatin resistant OVCAR3 cells, colony formation (FIG. 2a)): 290 nM
- fold difference in IC50 doses (OVCAR3-CP cells; cisplatin resistant vs cisplatin sensitive OVCAR3 cells): 4.4 fold
- IC50 (OVCAR3-WT cells; OVCAR3-WT, cisplatin alone): 66 nM
- IC50 (OVCAR3-WT cells; OVCAR3-WT, cisplatin with addition of 0.5 uM Trametinib): 33 nM
- fold decrease in the IC50 (OVCAR3-WT cells; OVCAR3-WT, following addition of Trametinib to cisplatin): 2 fold
- IC50 (OVCAR3-WT cells; cisplatin sensitive OVCAR3 cells, colony formation (FIG. 2a)): 66 nM

Compound: IRQQPRDPPTETLELEVSPDPAS (listed as Homo sapiens) [ALM201]
- proliferation capacity [4]: inhibited the proliferation capacity
- EMT markers [5]: reversing EMT markers
- MAPK pathway [5]: downregulation of the MAPK pathway
- invasion potential [6]: inhibited
- migration potential [7]: inhibited
- EMT signalling (Kuramochi cells): reduced
- MAPK signalling (Kuramochi cells): reduced
